# Results as given in US8999970B2, “Administration of an anti-obesity compound to individuals with renal impairment” (Arena Pharmaceuticals, Inc., priority 2010, dated 2015).
# Where “and” joins values, the source holds several entries; their conditions need not be identical. Identical values can stand only once. Entries after “also recorded” stand apart in the source; their conditions may differ.
# Columns and labels:
# [1] = Preclinical toxicology: lorcaserin, M1 and M5 pharmacokinetics after oral administration of lorcaserin, 52 wk, monkeys; details: for AUC0-inf / AUClast / Cmax / tmax: Monkeys, 52 wk; for AUC0-inf in monkeys relative to predicted daily exposure in severe renal impairment / Cmax in monkeys relative to predicted Cmax in severe renal impairment: monkeys 2 mg/kg/day (NOAEL); for AUC0-inf in monkeys relative to predicted daily exposure in severe renal impairment / AUC0-inf exposure margin, monkeys vs predicted daily exposure in severe renal impairment: human 10 mg BID; for Cmax in monkeys relative to predicted Cmax in severe renal impairment: human 10 mg BID steady state; for Dose proportionality of plasma exposure: Day 1, 2 to 125 mg/kg, both sexes
# Method: Lorcaserin doses of 0, 2, 10, 50, and 125 mg/kg in a 5 mL/kg dose volume were administered by nasogastric intubation once daily for 12 months to cynomolgus monkeys (4 to 6/sex/group). Two animals/sex from the control, 50 and 125 mg/kg groups were continued on study without further dosing for an additional 4 weeks prior to termination. For the first 91 days of the study, dose solutions were prepared using anhydrous lorcaserin. Starting on Day 92 and continuing for the remainder of the study, dose solutions were prepared using lorcaserin hemihydrate to match the intended commercial form. […] Evaluations included clinical signs, food consumption, BW, electrocardiograms, ophthalmic exams, and clinical pathology indices. Blood samples were collected for TK analysis on Day 1, Week 4, Day 91, Day 92, and Week 52. A full necropsy was conducted on all animals, and tissues were collected, preserved, processed, and examined microscopically. Additional sections of heart were collected to allow comprehensive evaluation of all heart valves. Heart histopathologic evaluation included atria, ventricles, interventricular septum, both AV valves (mitral and tricuspid), and the aortic and pulmonic valves.
# [2] = Modeled steady state exposures following lorcaserin 10 mg BID (simulations and noncompartmental analysis from QD data); details: for AUC24 hr / Cmax / t1/2: 10 mg BID Simulation, Steady State
# Method: To better assess the potential implications of M1 and M5 levels in patients, steady state exposures (i.e. the state of equilibrium obtained at the end of a certain number of dosings) following lorcaserin 10 mg twice daily (BID) dosing were modeled using simulations and noncompartmental analysis based on data from pharmacokinetic studies with once daily (QD) dosing.
# To better assess the potential implications of M1 levels in subjects with renal impairment, steady state M1 exposure following lorcaserin 10 mg BID administration was modeled using simulations and noncompartmental analysis based upon data from pharmacokinetic studies with once daily (QD) dosing. This modeling is discussed below in Example 5.
# To better assess the potential implications of M1 and M5 levels, steady state exposures following lorcaserin 10 mg BID dosing were modeled using simulations and noncompartmental analysis based upon data from pharmacokinetic studies with once daily (QD) dosing.
# [3] = lorcaserin 10 mg/kg/day oral, F
# [4] = lorcaserin 10 mg/kg/day oral, M
# [5] = lorcaserin 50 mg/kg/day oral, F
# [6] = lorcaserin 50 mg/kg/day oral, M
# [7] = lorcaserin 125 mg/kg/day oral, F
# [8] = lorcaserin 125 mg/kg/day oral, M
smiles,measurement,setting,value
"C[C@H]1CN(S(=O)(=O)O)CCc2ccc(Cl)cc21 [Compound M1, lorcaserin sulfamate]",AUC0-inf,"[1]; lorcaserin 2 mg/kg/day oral, F",41 µg·h/mL and 40.9 ± 1.6 µg·h/mL
same,AUClast,"[1]; lorcaserin 2 mg/kg/day oral, F",39.3 ± 1.8 µg·h/mL
same,Cmax,"[1]; lorcaserin 2 mg/kg/day oral, F",4580 ng/mL
same,tmax,"[1]; lorcaserin 2 mg/kg/day oral, F",1.5 ± 0.6 h
same,AUC0-inf,"[1]; lorcaserin 2 mg/kg/day oral, M",62 µg·h/mL and 61.6 ± 15.4 µg·h/mL
same,AUClast,"[1]; lorcaserin 2 mg/kg/day oral, M",56.4 ± 14.3 µg·h/mL
same,Cmax,"[1]; lorcaserin 2 mg/kg/day oral, M",5010 ng/mL
same,tmax,"[1]; lorcaserin 2 mg/kg/day oral, M",3.0 ± 1.2 h
same,AUC0-inf,[1]; [3],307 ± 66 µg·h/mL
same,AUClast,[1]; [3],269 ± 40 µg·h/mL
same,Cmax,[1]; [3],27500 ± 6600 ng/mL
same,tmax,[1]; [3],2.5 ± 1.0 h
same,AUC0-inf,[1]; [4],312 ± 79 µg·h/mL
same,AUClast,[1]; [4],276 ± 74 µg·h/mL
same,Cmax,[1]; [4],22000 ± 7600 ng/mL
same,tmax,[1]; [4],3.3 ± 1.5 h
same,AUC0-inf,[1]; [5],877 ± 221 µg·h/mL
same,AUClast,[1]; [5],771 ± 182 µg·h/mL
same,Cmax,[1]; [5],56300 ± 13400 ng/mL
same,tmax,[1]; [5],5.2 ± 2.4 h
same,AUC0-inf,[1]; [6],1060 ± 313 µg·h/mL
same,AUClast,[1]; [6],904 ± 228 µg·h/mL
same,Cmax,[1]; [6],62300 ± 14100 ng/mL
same,tmax,[1]; [6],4.7 ± 1.6 h
same,AUC0-inf,[1]; [7],1910 ± 865 µg·h/mL
same,AUClast,[1]; [7],1580 ± 501 µg·h/mL
same,Cmax,[1]; [7],115000 ± 24000 ng/mL
same,tmax,[1]; [7],3.5 ± 2.5 h
same,AUC0-inf,[1]; [8],2020 ± 856 µg·h/mL
same,AUClast,[1]; [8],1460 ± 269 µg·h/mL
same,Cmax,[1]; [8],106000 ± 31000 ng/mL
same,tmax,[1]; [8],3.7 ± 2.3 h
same,AUC0-inf in monkeys relative to predicted daily exposure in severe renal impairment,[1],1.6-2.4 times
same,Cmax in monkeys relative to predicted Cmax in severe renal impairment,[1],approximately 5 times
same,"Cmax margin, monkeys vs predicted exposure in severe renal impairment",[1]; monkeys 10 mg/kg/day,20-25 times
same,"AUC0-inf exposure margin, monkeys vs predicted daily exposure in severe renal impairment",[1]; monkeys 10 mg/kg/day,about 12 fold
same,Dose proportionality of plasma exposure,[1]; monkeys,less than dose proportional
same,AUC24 hr,[2]; Mild,4620 ng·h/mL
same,Cmax,[2]; Mild,207 ng/mL
same,t1/2,[2]; Mild,34.6 h
same,AUC24 hr,[2]; Moderate,9670 ng·h/mL
same,Cmax,[2]; Moderate,414 ng/mL
same,t1/2,[2]; Moderate,109 h
same,AUC24 hr,[2]; Normal,2790 ng·h/mL
same,Cmax,[2]; Normal,130 ng/mL
same,t1/2,[2]; Normal,30.0 h
same,AUC24 hr,[2]; Severe,"25,500 hr · ng/mL"
same,Cmax,[2]; Severe,1090 ng/mL
same,t1/2,[2]; Severe,99.2 h
same,Level some individuals with severe renal impairment might reach at steady state,[2]; five times the modeled mean of 1090 ng/mL,over 5000 ng/mL; also recorded: more than 5000 ng/mL
"C[C@H]1CN(C(=O)O[C@@H]2O[C@H](C(=O)O)[C@@H](O)[C@H](O)[C@H]2O)CCc2ccc(Cl)cc21 [Compound M5, N-carbamoyl glucuronide of lorcaserin]",AUC0-inf,"[1]; lorcaserin 2 mg/kg/day oral, F",2.13 ± 0.82 µg·h/mL
same,AUClast,"[1]; lorcaserin 2 mg/kg/day oral, F",1.76 ± 0.83 µg·h/mL
same,Cmax,"[1]; lorcaserin 2 mg/kg/day oral, F",771 ± 104 ng/mL
same,tmax,"[1]; lorcaserin 2 mg/kg/day oral, F",0.5 ± 0.0 h
same,AUC0-inf,"[1]; lorcaserin 2 mg/kg/day oral, M",2.38 ± 0.29 µg·h/mL
same,AUClast,"[1]; lorcaserin 2 mg/kg/day oral, M",1.82 ± 0.57 µg·h/mL
same,Cmax,"[1]; lorcaserin 2 mg/kg/day oral, M",635 ± 310 ng/mL
same,tmax,"[1]; lorcaserin 2 mg/kg/day oral, M",0.8 ± 0.3 h
same,AUC0-inf,[1]; [3],6.52 ± 1.52 µg·h/mL
same,AUClast,[1]; [3],6.14 ± 1.71 µg·h/mL
same,tmax,[1]; [3],1.0 ± 0.7 h
same,AUC0-inf,[1]; [4],13.6 ± 5.0 µg·h/mL
same,AUClast,[1]; [4],12.5 ± 6.1 µg·h/mL
same,Cmax,[1]; [4],2480 ± 1140 ng/mL
same,tmax,[1]; [4],1.8 ± 0.5 h
same,AUC0-inf,[1]; [5],40.4 ± 13.4 µg·h/mL
same,AUClast,[1]; [5],38.7 ± 12.7 µg·h/mL
same,Cmax,[1]; [5],3600 ± 620 ng/mL
same,tmax,[1]; [5],3.2 ± 1.8 h
same,AUC0-inf,[1]; [6],71.4 ± 26.6 µg·h/mL
same,AUClast,[1]; [6],69.0 ± 25.8 µg·h/mL
same,Cmax,[1]; [6],7040 ± 2050 ng/mL
same,tmax,[1]; [6],2.3 ± 1.9 h
same,AUC0-inf,[1]; [7],140 ± 78 µg·h/mL
same,AUClast,[1]; [7],134 ± 78 µg·h/mL
same,Cmax,[1]; [7],19700 ± 13500 ng/mL
same,tmax,[1]; [7],2.7 ± 2.0 h
same,AUC0-inf,[1]; [8],182 ± 77 µg·h/mL
same,AUClast,[1]; [8],170 ± 64 µg·h/mL
same,Cmax,[1]; [8],15800 ± 3700 ng/mL
same,tmax,[1]; [8],2.2 ± 1.9 h
same,AUC0-inf in monkeys relative to predicted daily exposure in moderate renal impairment,[1]; monkeys 2 mg/kg/day,approximately equal
same,AUC0-inf in monkeys relative to predicted daily exposure in severe renal impairment,[1],approximately half
same,Cmax in monkeys relative to predicted Cmax in severe renal impairment,[1],2.8-3.5 times
same,Exposure in monkeys relative to predicted daily exposure in moderate renal impairment,[1]; monkeys 10 mg/kg/day,3.0-6.3 times
same,"AUC0-inf exposure margin, monkeys vs predicted daily exposure in severe renal impairment",[1]; monkeys 10 mg/kg/day,1.5-3.2 fold
same,Dose proportionality of plasma exposure,[1]; monkeys,more than dose proportional
same,"Exposure relative to the concomitant lorcaserin exposure, higher","[1]; monkeys, single or multiple doses of lorcaserin",up to 3 fold
same,AUC24 hr,[2]; ESRD,20100 ng·h/mL
same,Cmax,[2]; ESRD,936 ng/mL
same,t1/2,[2]; ESRD,22.9 h
same,AUC24 hr,[2]; Mild,1090 ng·h/mL
same,Cmax,[2]; Mild,78.1 ng/mL
same,t1/2,[2]; Mild,5.41 h
same,AUC24 hr,[2]; Moderate,2150 ng·h/mL
same,Cmax,[2]; Moderate,141 ng/mL
same,t1/2,[2]; Moderate,9.83 h
same,AUC24 hr,[2]; Normal,765 ng·h/mL
same,Cmax,[2]; Normal,77.3 ng/mL
same,t1/2,[2]; Normal,6.11 h
same,AUC24 hr,[2]; Severe,4260 ng·h/mL
same,Cmax,[2]; Severe,223 ng/mL
same,t1/2,[2]; Severe,11.0 h
"C[C@H]1CNCCc2ccc(Cl)cc21 [Lorcaserin, (R)-8-chloro-1-methyl-2,3,4,5-tetrahydro-1H-3-benzazepine]",Dose proportionality of plasma exposure,[1]; monkeys,dose linear
same,AUC24 hr,[2]; ESRD,1860 ng·h/mL
same,Cmax,[2]; ESRD,87.6 ng/mL
same,t1/2,[2]; ESRD,24.8 h
same,AUC24 hr,[2]; Mild,1270 ng·h/mL
same,Cmax,[2]; Mild,64.1 ng/mL
same,t1/2,[2]; Mild,12.0 h
same,AUC24 hr,[2]; Moderate,935 ng·h/mL
same,Cmax,[2]; Moderate,49.5 ng/mL
same,t1/2,[2]; Moderate,11.5 h
same,AUC24 hr,[2]; Normal,942 ng·h/mL
same,Cmax,[2]; Normal,55.8 ng/mL
same,t1/2,[2]; Normal,8.28 h
same,AUC24 hr,[2]; Severe,835 ng·h/mL
same,Cmax,[2]; Severe,40.9 ng/mL
same,t1/2,[2]; Severe,12.8 h
